From US20090092624A1, “Antiinfective Flavononol Compounds and Methods of Use Thereof” (priority 2007, published 2009)
Values joined by “and” are separate entries in the source; they are usually repeats but may differ in a detail not shown here. Equal values may be shown once. “Also recorded” adds a separate entry of the source.

Key:
[1] = system: Human influenza A virus subtype /PR/8/34 H1N1; test: microbe, parasite or virus in culture; format: cell-based, Influenza A/PR/8/34 (H1N1); conditions: MDCK
H1N1 virions = format: binding, Influenza A virus (H1N1)
[2] = system: Escherichea coli (ATCC# 53499); test: microbe, parasite or virus in culture; conditions: Escherichia coli, ATCC53499, read-out: IC50 value, adhesion inhibition
[3] = system: Candida albicans (ATCC# 96133); test: microbe, parasite or virus in culture; conditions: ATCC96133, read-out: IC50 value, adhesion inhibition

SMILES | IC50 [1] | direct binding to H1N1 virus surface (H1N1 virions) | IC50 [2] [µM] | IC50 [3] [µM]
NC12CC3CC(CC(C3)C1)C2 [Amantadine] | 4.7 µg/mL and 27 µM |  |  | 
CCOC(=O)C1=C[C@@H](OC(CC)CC)[C@H](NC(C)=O)[C@@H](N)C1 [Oseltamivir] | 0.1 µg/mL and 320 nM |  |  | 
O=C1c2c(O)cc(O)cc2OC(c2cc(O)c(O)c(O)c2)C1O (stereo not drawn) [Tristenonol aglycone, 3,5,7-Trihydroxy-2-(3,4,5-trihydroxyphenyl)-chroman-4-one] | 2.8 µg/mL and 5.4 µM | does bind directly to the virus surface; also recorded: bound to the H1N1 virus surface | 60 | 89.1
